Laboratory results published in patent US10656162B2, “Use of glu-tubulin as a biomarker of drug response to furazanobenzimidazoles” (Basilea Pharmaceutica AG, priority 2011, dated 2020).

Columns and labels:
A549 NSCLC cells = assay: Immunofluorescent staining of microtubules, A549; format: cell-based, human; conditions: for Microtubule phenotype of mitotic or G2/M arrested cells: A549, 24 hours, 50 nM BAL27862, 80 nM Compound B, 20 nM Compound C, anti-alpha-tubulin staining
Experimental: (§1) A549 human non-small cell lung cancer (NSCLC, ATCC reference number CCL-185) cells, HeLa cervical cancer cells (ATCC reference number CCL-2) and SKBR3 breast carcinoma cells (ATCC reference number HTB-30) were seeded at densities of 50% on round microscope coverslips and cultured for 24 hours in RPMI-1640 containing 10% FCS (also referred to as FBS) at 37° C., 5% CO2. Compounds to be tested were dissolved in DMSO. The cell culture medium was replaced with medium containing the diluted compound(s) (paclitaxel, vinblastine, colchicine and nocodazole were purchased from Sigma-Aldrich) or vehicle. After treatment for the times indicated in the Brief Description of the Figures, coverslips were washed and cells were fixed in methanol/acetone (1:1) for 5 minutes at room temperature and subsequently incubated in blocking buffer (0.5% BSA and 0.1% TX-100 in PBS) for 30 minutes at room temperature. Specimens were then incubated with anti-alpha-tubulin (Sigma, 1:2000) for 1 hour at room temperature in blocking buffer. After several washing steps cells were incubated with AlexaFluor-488 goat-anti-mouse IgG (Molecular Probes, 1:3000) for 1 hour at room temperature followed by several washing steps with blocking buffer. Specimens were then mounted with ProLong Gold antifade (Molecular Probes, sealed with nail polish and examined with a Leica immunofluorescence microscope. Images were captured with a cooled CCD-camera and processed by ImageJ software.

[1] = test system: CXF 1103 patient-derived colorectal tumour; assay: Colony outgrowth assay, CXF 1103; format: cell-based, human; conditions: for Response to compound (BAL27862, paclitaxel, vinblastine): CXF 1103, colorectal cancer, ex vivo colony outgrowth
Experimental: (§2) Single cell suspensions of patient-derived tumour xenografts (maintained in nude mice) were prepared. For colony outgrowth assays, cells were plated in soft agar in 24-well plates according to the assay introduced by Hamburger & Salmon (Primary bioassay of human tumour stem cells, Science, 1977.197:461-463). 2×10^4-6×10^4 cells in 0.2 mL medium containing 0.4% agar were plated out on a bottom layer of 0.75% agar. Test compounds were applied in 0.2 mL culture medium. Every 24-well plate contained untreated controls and samples in triplicates. Cultures were incubated at 37° C. and 7.5% CO2 for 5-28 days. 24 hours prior to analysis, vital colonies were stained with a solution of metabolisable tetrazolium salt (Alley M C et al, Life Sci. 1982, 31:3071-3078) and were counted with an automatic image analysis system (Omnicon 3600, Biosys GmbH).
(§3) Relative drug effects were expressed by the ratio of the mean number of colonies in the treated wells and the control wells. IC70-values were determined by plotting compound concentrations versus relative colony counts.

[2] = test system: CXF 243 patient-derived colorectal tumour; assay: Colony outgrowth assay, CXF 243; format: cell-based, human
Experimental: as §2, §3

[3] = test system: LXFE 211 Patient-derived lung tumour; assay: Colony outgrowth assay, LXFE 211; format: cell-based, human; parameters: key to Response to compound (BAL27862, paclitaxel, vinblastine): Sensitive: BAL27862-sensitive tumour cells have IC70 values in the low nanomolar range; Resistant: BAL27862-resistant tumour cells are defined by IC70 values >600 nanomolar; conditions: for Response to compound (BAL27862, paclitaxel, vinblastine): LXFE 211, lung cancer, ex vivo colony outgrowth
Experimental: as §2, §3

[4] = test system: A549 BAL27862-resistant cell line variant; assay: Crystal Violet assay, BAL27862-resistant A549 versus parental line; format: cell-based, human; conditions: for Resistance factors (ratio of IC50 BAL27862-resistant cell line variant and IC50 parental cell line): A549, 72 hours, Crystal Violet
Excerpt: (§4) BAL27862-resistant sublines of human non-small cell lung cancer (H460 ATCC reference HTB-177; A549 ATCC reference CCL-185), ovarian cancer (SKOV3 ATCC reference HTB-77) lines were generated by long-term selection in complete cell culture medium (RPMI-1640 containing 10% FCS; Sigma-Aldrich) by stepwise increasing concentrations of BAL27862. […] The resistant sublines were expanded at the highest tolerated BAL27862 concentration and subsequently frozen and stored in liquid nitrogen.
(§5) After medium was removed, cells were fixed and stained by adding 50 μl Crystal Violet Staining (0.2% Crystal Violet in 50% Methanol) per well. Plates were incubated for 1 hour at room temperature. Subsequently the stain was decanted and plates were washed 4 times with double-distilled water. Plates were air-dried for several hours. Stain was dissolved by adding 100 μl buffer (0.1 M Tris pH 7.5, 0.2% SDS, 20% Ethanol) per well and shaking the plates. Absorbance at 590 nm was measured using a SpectraMax M2e plate reader (Molecular Devices). Anti-proliferative IC50 values were calculated from concentration response curves using GraphPad Prism software. Resistance factors were calculated as a ratio of BAL27862 IC50 in the resistant line variant versus the IC50 in the parental line.

[5] = test system: H460 BAL27862-resistant cell line variant; assay: Crystal Violet assay, BAL27862-resistant H460 versus parental line; format: cell-based, human; conditions: for Resistance factors (ratio of IC50 BAL27862-resistant cell line variant and IC50 parental cell line): H460, 72 hours, Crystal Violet
Excerpt: as §4, §5

SKOV3 resistant 1 = assay: Crystal Violet assay, SKOV3 resistant 1 versus parental line; format: cell-based, human; conditions: for Resistance factors (ratio of IC50 BAL27862-resistant cell line variant and IC50 parental cell line): SKOV3 resistant 1, 72 hours, Crystal Violet
Excerpt: as §4, §5

SKOV3 resistant 2 = assay: Crystal Violet assay, SKOV3 resistant 2 versus parental line; format: cell-based, human; conditions: for Resistance factors (ratio of IC50 BAL27862-resistant cell line variant and IC50 parental cell line): SKOV3 resistant 2, 72 hours, Crystal Violet
Excerpt: as §4, §5

[6] = test system: LXFE 397 Patient-derived lung tumour; assay: Colony outgrowth assay, LXFE 397; format: cell-based, human
Experimental: as §2, §3

[7] = test system: MEXF 1341 patient-derived melanoma; assay: Colony outgrowth assay, MEXF 1341; format: cell-based, human; parameters: key to Response to compound (BAL27862, paclitaxel, vinblastine): Sensitive: BAL27862-sensitive tumour cells have IC70 values in the low nanomolar range; Resistant: BAL27862-resistant tumour cells are defined by IC70 values >600 nanomolar
Experimental: as §2, §3

[8] = test system: MEXF 276 patient-derived melanoma; assay: Colony outgrowth assay, MEXF 276; format: cell-based, human
Experimental: as §2, §3

[9] = test system: HeLa cervical cancer cells; assay: Immunofluorescent staining of microtubules, HeLa; format: cell-based, human; conditions: 24 hours, 50 nM BAL27862
Experimental: as §1, with “Specimens were then mounted with ProLong Gold antifade (Molecular Probes, sealed with nail polish and examined with a Leica immunofluorescence microscope. Images were captured with a cooled CCD-camera and processed by ImageJ software.” left out

[10] = test system: SKBR3 breast cancer cells; assay: Immunofluorescent staining of microtubules, SKBR3; format: cell-based, human; conditions: SKBR3, 24 hours, 50 nM BAL27862
Experimental: as §1, with “Specimens were then mounted with ProLong Gold antifade (Molecular Probes, sealed with nail polish and examined with a Leica immunofluorescence microscope. Images were captured with a cooled CCD-camera and processed by ImageJ software.” left out

[11] = test system: experimental, solid tumour xenograft models; assay: Solid tumour xenograft models; conditions: in vivo
[12] = test system: P-gp pump over-expressing models; assay: Models over-expressing the P-gp pump; format: cell-based; conditions: models tested in vitro; also human mammary tumour xenografts

**Q.** How did the “Microtubule phenotype of mitotic or G2/M arrested cells” value (A549 NSCLC cells) turn out when `N#CCCNc1nonc1-c1nc2ccccc2n1CC(=O)c1ccc(N)nc1` [Compound C, 3-(4-{1-[2-(6-Amino-pyridin-3-yl)-2-oxo-ethyl]-1H-benzoimidazol-2-yl}-furazan-3-ylamino)-propionitrile] was run?
**A.** highly reproducible and distinct microtubule phenotype

**Q.** With `CC(=O)O[C@H]1C(=O)[C@@]2(C)[C@H]([C@H](OC(=O)c3ccccc3)[C@]3(O)C[C@H](OC(=O)[C@H](O)[C@@H](NC(=O)c4ccccc4)c4ccccc4)C(C)=C1C3(C)C)[C@]1(OC(C)=O)CO[C@@H]1C[C@@H]2O` [Paclitaxel, paclitaxel] as the molecule, how does the “Response to compound (BAL27862, paclitaxel, vinblastine)” value (from here on “Response to compound”) [1] read?
**A.** Resistant (BAL27862-resistant tumour cells are defined by IC70 values >600 nanomolar)

**Q.** What about the “Response to compound” value ([2]; CXF 243, colorectal cancer, ex vivo colony outgrowth) of the same molecule?
**A.** Resistant (BAL27862-resistant tumour cells are defined by IC70 values >600 nanomolar)

**Q.** And the “Response to compound” value [3]?
**A.** Resistant (BAL27862-resistant tumour cells are defined by IC70 values >600 nanomolar)

**Q.** What about the “Resistance factors (ratio of IC50 BAL27862-resistant cell line variant and IC50 parental cell line)” value [4] of the same molecule?
**A.** 0.06

**Q.** And the “Resistance factors (ratio of IC50 BAL27862-resistant cell line variant and IC50 parental cell line)” value [5]?
**A.** 0.3

**Q.** What about the “Resistance factors (ratio of IC50 BAL27862-resistant cell line variant and IC50 parental cell line)” value (SKOV3 resistant 1) of the same molecule?
**A.** 0.4

**Q.** What about the “Resistance factors (ratio of IC50 BAL27862-resistant cell line variant and IC50 parental cell line)” value (SKOV3 resistant 2) of the same molecule?
**A.** 0.5

**Q.** With `N#CCCNc1nonc1-c1nc2ccccc2n1CC(=O)c1ccc(N)cc1` [BAL27862, 3-(4-{1-[2-(4-Amino-phenyl)-2-oxo-ethyl]-1H-benzoimidazol-2-yl}-furazan-3-ylamino)-propionitrile] as the molecule, how does the “IC70 BAL27862” value ([1]; CXF 1103, 70% growth inhibition versus controls) read?
**A.** 22 nM

**Q.** What about the “Response to compound” value [1] of the same molecule?
**A.** Sensitive

**Q.** And the “IC70 BAL27862” value ([2]; CXF 243, 70% growth inhibition versus controls)?
**A.** 696 nM

**Q.** What about the “IC70 BAL27862” value ([3]; LXFE 211, 70% growth inhibition versus controls) of the same molecule?
**A.** 21 nM

**Q.** And the “Response to compound” value [3]?
**A.** Sensitive

**Q.** What about the “IC70 BAL27862” value ([6]; LXFE 397, 70% growth inhibition versus controls) of the same molecule?
**A.** >3500 nM

**Q.** What about the “Response to compound” value ([6]; LXFE 397, lung cancer, ex vivo colony outgrowth) of the same molecule?
**A.** Resistant (BAL27862-resistant tumour cells are defined by IC70 values >600 nanomolar)

**Q.** What about the “IC70 BAL27862” value ([7]; MEXF 1341, 70% growth inhibition versus controls) of the same molecule?
**A.** 25 nM

**Q.** And the “Response to compound” value ([7]; MEXF 1341, melanoma, ex vivo colony outgrowth)?
**A.** Sensitive

**Q.** And the “IC70 BAL27862” value ([8]; MEXF 276, 70% growth inhibition versus controls)?
**A.** >3500 nM

**Q.** What about the “Response to compound” value ([8]; MEXF 276, melanoma, ex vivo colony outgrowth) of the same molecule?
**A.** Resistant (BAL27862-resistant tumour cells are defined by IC70 values >600 nanomolar)

**Q.** And the “Resistance factors (ratio of IC50 BAL27862-resistant cell line variant and IC50 parental cell line)” value [4]?
**A.** 3.0

**Q.** What about the “BAL27862 resistance factors versus parental lines” value ([4]; A549, based on IC50 determinations) of the same molecule?
**A.** 3.0 fold

**Q.** What about the “Resistance factors (ratio of IC50 BAL27862-resistant cell line variant and IC50 parental cell line)” value [5] of the same molecule?
**A.** 5.3

**Q.** And the “BAL27862 resistance factors versus parental lines” value ([5]; H460, based on IC50 determinations)?
**A.** 5.3 fold

**Q.** What about the “Resistance factors (ratio of IC50 BAL27862-resistant cell line variant and IC50 parental cell line)” value (SKOV3 resistant 1) of the same molecule?
**A.** 7.6

**Q.** What about the “BAL27862 resistance factors versus parental lines” value (SKOV3 resistant 1; SKOV3 resistant 1, based on IC50 determinations) of the same molecule?
**A.** 7.6 fold

**Q.** And the “Resistance factors (ratio of IC50 BAL27862-resistant cell line variant and IC50 parental cell line)” value (SKOV3 resistant 2)?
**A.** 11.6

**Q.** And the “BAL27862 resistance factors versus parental lines” value (SKOV3 resistant 2; SKOV3 resistant 2, based on IC50 determinations)?
**A.** 11.6 fold

**Q.** What about the “Microtubule phenotype on combination treatment” value (A549 NSCLC cells; A549, 24 hours vinblastine, colchicine, paclitaxel or nocodazole with the final 4 hours including BAL27862) of the same molecule?
**A.** disruption of the microtubule structures

**Q.** And the “Microtubule phenotype of mitotic or G2/M arrested cells” value (A549 NSCLC cells)?
**A.** multiple dot-like structures are visible

**Q.** And the “Microtubule phenotype of mitotic or G2/M arrested cells” value (A549 NSCLC cells; listed as compound A)?
**A.** highly reproducible and distinct microtubule phenotype

**Q.** What about the “Microtubule phenotype of mitotic or G2/M arrested cells” value [9] of the same molecule?
**A.** highly reproducible and distinct microtubule phenotype

**Q.** And the “Microtubule phenotype of mitotic or G2/M arrested cells” value [10]?
**A.** highly reproducible and distinct microtubule phenotype

**Q.** What about the “Activity in tumour xenograft models” value [11] of the same molecule?
**A.** activity across a broad panel of experimental, solid tumour xenograft models

**Q.** And the “Activity with over-expression of the P-gp pump” value [12]?
**A.** not affected

**Q.** Which “Microtubule phenotype of mitotic or G2/M arrested cells” value (A549 NSCLC cells) does the source give for `Nc1ccc(C(=O)Cn2c(-c3nonc3N)nc3ccccc32)cc1` [Compound B, 2-[2-(4-Amino-furazan-3-yl)-benzoimidazol-1-yl]-1-(4-amino-phenyl)-ethanone] here?
**A.** highly reproducible and distinct microtubule phenotype
